Target: recombinant human HPK1 (Homo sapiens (Human), UniProt Q92918)
Assay: HPK1 kinase assay (ADP-Glo)
Assay type: biochemical
Conditions: 25 μM ATP, MBP substrate
Procedure, shortened: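 Activity was read as ADP formed, detected by ADP-Glo luminescence after the reaction of 5 ng recombinant human HPK1 with MBP and ATP (stocks 0.5 μg/μl and 25 μM) for 40 min at 30 °C. Buffer was Tris pH 7.5 with MgCl2, BSA and DTT, with compound in 0.5% DMSO. IC50 came from inhibition curves.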

Chain of recombinant human HPK1 (Q92918 whole entry): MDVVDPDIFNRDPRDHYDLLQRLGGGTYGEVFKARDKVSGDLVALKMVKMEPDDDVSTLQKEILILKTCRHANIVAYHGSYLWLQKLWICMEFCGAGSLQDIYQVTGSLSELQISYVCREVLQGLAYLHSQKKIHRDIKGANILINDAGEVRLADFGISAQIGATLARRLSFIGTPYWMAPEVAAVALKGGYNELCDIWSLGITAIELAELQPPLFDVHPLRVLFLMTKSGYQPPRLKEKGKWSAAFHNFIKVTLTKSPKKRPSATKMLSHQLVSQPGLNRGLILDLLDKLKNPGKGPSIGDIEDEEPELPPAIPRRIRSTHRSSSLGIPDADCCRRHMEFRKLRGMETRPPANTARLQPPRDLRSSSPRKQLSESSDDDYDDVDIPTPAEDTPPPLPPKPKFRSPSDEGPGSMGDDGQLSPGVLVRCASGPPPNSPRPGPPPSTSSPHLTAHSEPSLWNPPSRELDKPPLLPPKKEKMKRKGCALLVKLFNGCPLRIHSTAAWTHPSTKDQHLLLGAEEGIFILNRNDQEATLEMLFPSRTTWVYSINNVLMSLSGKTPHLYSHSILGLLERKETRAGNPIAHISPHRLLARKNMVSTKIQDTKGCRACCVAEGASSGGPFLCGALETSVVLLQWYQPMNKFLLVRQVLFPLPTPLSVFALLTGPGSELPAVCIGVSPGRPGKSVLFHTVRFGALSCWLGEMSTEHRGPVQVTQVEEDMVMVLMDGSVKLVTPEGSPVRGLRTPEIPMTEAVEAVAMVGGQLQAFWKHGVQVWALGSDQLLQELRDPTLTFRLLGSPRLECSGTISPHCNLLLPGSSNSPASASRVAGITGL

Row | IC50 [nM] | SMILES
1 | 101 to 500 | O=C(Nc1cn2cc(-c3cc(F)c(OC(F)(F)F)c4[nH]ncc34)ccc2n1)[C@@H]1C[C@@H]1F [Example 344, (1S,2S)-2-fluoro-N-(6-(6-fluoro-7-(trifluoromethoxy)-1H-indazol-4-yl)imidazo[1,2-a]pyridin-2-yl)cyclopropane-1-carboxamide]
2 | > 1000 | CN(C)C(=O)c1c(F)cc2[nH]ncc2c1-c1ccc2nc(NC(=O)[C@@H]3C[C@@H]3F)sc2c1 [Example 145, 6-fluoro-4-(2-((1S,2S)-2-fluorocyclopropane-1-carboxamido)benzo[d]thiazol-6-yl)-N,N-dimethyl-1H-indazole-5-carboxamide]
3 | 101 to 500 | C=CC(=O)Nc1c(F)c(Cl)c(-c2ccc3nc(NC(=O)[C@@H]4C[C@@H]4F)sc3c2)c2cn[nH]c12 [Example 72, (1S,2S)-N-(6-(7-acrylamido-5-chloro-6-fluoro-1H-indazol-4-yl)benzo[d]thiazol-2-yl)-2-fluorocyclopropane-1-carboxamide]
4 | < 100 | C=Cc1cc(C)c(-c2ccn3nc(NC(=O)[C@@H]4C[C@@H]4F)cc3c2)c2cn[nH]c12 [Example 483, (1S,2S)-2-fluoro-N-(5-(5-methyl-7-vinyl-1H-indazol-4-yl)pyrazolo[1,5-a]pyridin-2-yl)cyclopropane-1-carboxamide]
5 | < 100 | NC1CCC(Nc2c(F)c(Cl)c(-c3ccn4nc(NC(=O)[C@@H]5C[C@@H]5F)cc4c3)c3cn[nH]c23)CC1 (stereo partly drawn) [Example 515, (1S,2S)-N-(5-(7-((4-aminocyclohexyl)amino)-5-chloro-6-fluoro-1H-indazol-4-yl)pyrazolo[1,5-a]pyridin-2-yl)-2-fluorocyclopropane-1-carboxamide]
6 | > 1000 | Cc1ccc2[nH]nc(N)c2c1-c1ccc2nc(NC(=O)C3CC3)sc2c1 [Example 26, N-(6-(3-amino-5-methyl-1H-indazol-4-yl)benzo[d]thiazol-2-yl)cyclopropanecarboxamide]
7 | 101 to 500 | O=C(Nc1nc2ccc(-c3c(Cl)c(F)c(N4CCC(O)C4)c4[nH]ncc34)cc2s1)[C@@H]1C[C@@H]1F (stereo partly drawn) [Example 78, (1S,2S)-N-(6-(5-chloro-6-fluoro-7-(3-hydroxypyrrolidin-1-yl)-1H-indazol-4-yl)benzo[d]thiazol-2-yl)-2-fluorocyclopropane-1-carboxamide]
8 | < 100 | O=C(Nc1cn2cc(-c3c(Cl)c(F)c(-n4cccc4)c4[nH]ncc34)ccc2n1)[C@@H]1C[C@@H]1F [Example 365, (1S,2S)-N-(6-(5-chloro-6-fluoro-7-(1H-pyrrol-1-yl)-1H-indazol-4-yl)imidazo[1,2-a]pyridin-2-yl)-2-fluorocyclopropane-1-carboxamide]
9 | < 100 | Cc1c(F)c(C(F)(F)F)c2[nH]ncc2c1-c1ccc2nc(NC(=O)[C@@H]3C[C@@H]3F)sc2n1 [Example 205, (1S,2S)-2-fluoro-N-(5-(6-fluoro-5-methyl-7-(trifluoromethyl)-1H-indazol-4-yl)thiazolo[5,4-b]pyridin-2-yl)cyclopropane-1-carboxamide]
10 | < 100 | C[C@H](c1c(F)c(Cl)c(-c2ccc3nc(NC(=O)[C@@H]4C[C@@H]4F)cn3c2)c2cn[nH]c12)n1cnnn1 [Example 413]
11 | 101 to 500 | Cc1ccc2[nH]ncc2c1-c1ccc2nc(NC(=O)C3CC(F)C3)sc2c1 [Example 6, (1S,3S)-3-fluoro-N-(6-(5-methyl-1H-indazol-4-yl)benzo[d]thiazol-2-yl)cyclobutane-1-carboxamide]
12 | < 100 | CNc1c(F)c(Cl)c(-c2ccc3nc(NC(=O)[C@@H]4C[C@@H]4F)cn3c2)c2cn[nH]c12 [Example 265, (1S,2S)-N-(6-(5-chloro-6-fluoro-7-(methylamino)-1H-indazol-4-yl)imidazo[1,2-a]pyridin-2-yl)-2-fluorocyclopropane-1-carboxamide]
13 | < 100 | CC(C)Nc1c(F)c(Cl)c(-c2ccn3nc(NC(=O)[C@@H]4C[C@@H]4F)cc3c2)c2cn[nH]c12 [Example 619, (1S,2S)-N-(5-(5-chloro-6-fluoro-7-(isopropylamino)-1H-indazol-4-yl)pyrazolo[1,5-a]pyridin-2-yl)-2-fluorocyclopropane-1-carboxamide]
14 | 501 to 1000 | Nc1c(Cl)cc2[nH]ncc2c1-c1ccc2nc(NC(=O)C3CC3)cn2c1 [Example 240, N-(6-(5-amino-6-chloro-1H-indazol-4-yl)imidazo[1,2-a]pyridin-2-yl)cyclopropanecarboxamide]
15 | > 1000 | CN(C)c1ccc2[nH]ncc2c1-c1ccn2nc(NC(=O)[C@@H]3C[C@@H]3F)cc2c1 [Example 450, (1S,2S)-N-(5-(5-(dimethylamino)-1H-indazol-4-yl)pyrazolo[1,5-a]pyridin-2-yl)-2-fluorocyclopropane-1-carboxamide]
16 | < 100 | CCOc1c(F)c(Cl)c(-c2ccn3nc(NC(=O)[C@@H]4C[C@@H]4F)cc3c2)c2cn[nH]c12 [Example 493, (1S,2S)-N-(5-(5-chloro-7-ethoxy-6-fluoro-1H-indazol-4-yl)pyrazolo[1,5-a]pyridin-2-yl)-2-fluorocyclopropane-1-carboxamide]
17 | < 100 | Cc1c(F)cc2[nH]ncc2c1-c1ccc2nc(NC(=O)C3CC3)cn2c1 [Example 245, N-(6-(6-fluoro-5-methyl-1H-indazol-4-yl)imidazo[1,2-a]pyridin-2-yl)cyclopropanecarboxamide]
18 | > 1000 | CSc1n[nH]c2cc(F)c(C)c(-c3ccc4nc(NC(=O)[C@@H]5C[C@@H]5F)sc4n3)c12 [Example 148, (1S,2S)-2-fluoro-N-(5-(6-fluoro-5-methyl-3-(methylthio)-1H-indazol-4-yl)thiazolo[5,4-b]pyridin-2-yl)cyclopropane-1-carboxamide]
19 | < 100 | CN(C(=O)O)C1CN(c2c(F)c(Cl)c(-c3ccc4nc(NC(=O)[C@@H]5C[C@@H]5F)sc4c3)c3cn[nH]c23)C1 [Example 89, (1-(5-chloro-6-fluoro-4-(2-((1S,2S)-2-fluorocyclopropane-1-carboxamido)benzo[d]thiazol-6-yl)-1H-indazol-7-yl)azetidin-3-yl)(methyl)carbamic acid]
20 | < 100 | O=C(Nc1cc2cc(-c3c(Cl)c(F)c(N4CCS(=O)(=O)CC4)c4[nH]ncc34)ccn2n1)[C@@H]1C[C@@H]1F [Example 628, (1S,2S)-N-(5-(5-chloro-7-(1,1-dioxidothiomorpholino)-6-fluoro-1H-indazol-4-yl)pyrazolo[1,5-a]pyridin-2-yl)-2-fluorocyclopropane-1-carboxamide]
21 | 101 to 500 | NC1CCN(c2c(F)c(Cl)c(-c3ccc4nc(NC(=O)[C@@H]5C[C@@H]5F)sc4c3)c3cn[nH]c23)CC1 [Example 83, (1S,2S)-N-(6-(7-(4-aminopiperidin-1-yl)-5-chloro-6-fluoro-1H-indazol-4-yl)benzo[d]thiazol-2-yl)-2-fluorocyclopropane-1-carboxamide]
22 | < 100 | O=C(Nc1cn2cc(-c3c(Cl)c(F)c(N4CCC4)c4[nH]ncc34)ccc2n1)[C@@H]1C[C@@H]1F [Example 283, (1S,2S)-N-(6-(7-(azetidin-1-yl)-5-chloro-6-fluoro-1H-indazol-4-yl)imidazo[1,2-a]pyridin-2-yl)-2-fluorocyclopropane-1-carboxamide]
23 | < 100 | O=C(Nc1cc2cc(-c3c(Cl)ccc4[nH]ncc34)ccn2n1)[C@@H]1C[C@@H]1F [Example 448, (1S,2S)-N-(5-(5-chloro-1H-indazol-4-yl)pyrazolo[1,5-a]pyridin-2-yl)-2-fluorocyclopropane-1-carboxamide]
